Legend:
IRAK3 = molecular target: T1, IRAK3 (Homo sapiens, UniProt Q9Y616); assay: thermal shift assay dose response with isothermal analysis at […]°C; assay type: binding
T1 construct: pseudokinase domain, residues 145–454
T1 sequence (Q9Y616 145-454): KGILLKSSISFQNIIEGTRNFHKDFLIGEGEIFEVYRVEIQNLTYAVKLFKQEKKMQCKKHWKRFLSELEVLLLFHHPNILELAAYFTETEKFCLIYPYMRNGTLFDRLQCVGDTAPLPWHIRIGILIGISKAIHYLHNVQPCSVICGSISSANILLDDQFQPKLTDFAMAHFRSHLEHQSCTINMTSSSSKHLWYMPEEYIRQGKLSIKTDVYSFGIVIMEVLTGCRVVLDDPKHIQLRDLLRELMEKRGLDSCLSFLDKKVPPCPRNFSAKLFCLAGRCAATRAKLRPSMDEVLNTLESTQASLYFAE

IRAK2 = molecular target: T2, IRAK2 (Homo sapiens, UniProt O43187); assay: as above; assay type: binding
T2 construct: pseudokinase domain, residues 192-507
T2 sequence (O43187 192-507): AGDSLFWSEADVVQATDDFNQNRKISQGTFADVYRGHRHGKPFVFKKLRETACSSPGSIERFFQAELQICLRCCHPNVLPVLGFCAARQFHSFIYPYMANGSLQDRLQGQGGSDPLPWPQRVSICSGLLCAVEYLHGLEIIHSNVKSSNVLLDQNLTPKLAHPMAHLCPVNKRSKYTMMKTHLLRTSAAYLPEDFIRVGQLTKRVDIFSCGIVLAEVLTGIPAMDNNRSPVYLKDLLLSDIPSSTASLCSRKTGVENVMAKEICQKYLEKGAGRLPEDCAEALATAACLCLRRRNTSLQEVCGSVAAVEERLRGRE

[1] = molecular target: the molecule itself; assay: crystal structure; IRAK3_(145-454) at 7-10 mg/mL, 0.1 M citric acid pH 5.0, 1.62 M ammonium sulfate, 20°C, hanging drop; 2.9 Å; three molecules in the asymmetric unit
[2] = molecular target: the molecule itself; assay: SEC; analytical gel filtration, Superdex Increase 3.2/300, 20 mM HEPES pH 7.5, 200 mM NaCl, 10% glycerol, 1 mM DTT; 25 μl loaded at 1-5 mg/ml; fractions on SDS-PAGE; monomer to dimer

Molecule: Nc1ncnc2c1ncn2[C@@H]1O[C@H](COP(=O)(O)OP(=O)(O)OP(=O)(O)O)[C@@H](O)[C@H]1O [ATP]
- Kd (IRAK3): ~196 µM
- Kd (IRAK2): 9.8 ± 3.8 µM

B1: IRAK3 pseudokinase domain (residues 145-454), wild type (domain or fragment, human, UniProt Q9Y616 145-454, looked up)
chain: KGILLKSSISFQNIIEGTRNFHKDFLIGEGEIFEVYRVEIQNLTYAVKLFKQEKKMQCKKHWKRFLSELEVLLLFHHPNILELAAYFTETEKFCLIYPYMRNGTLFDRLQCVGDTAPLPWHIRIGILIGISKAIHYLHNVQPCSVICGSISSANILLDDQFQPKLTDFAMAHFRSHLEHQSCTINMTSSSSKHLWYMPEEYIRQGKLSIKTDVYSFGIVIMEVLTGCRVVLDDPKHIQLRDLLRELMEKRGLDSCLSFLDKKVPPCPRNFSAKLFCLAGRCAATRAKLRPSMDEVLNTLESTQASLYFAE
notes: Interleukin-1 receptor associated kinase 3 (IRAK3), human, pseudokinase domain, residues 145-454; Construct 6His-TEV-GST-3C-IRAK3 145-454; the 6His-GST tag was cut off with PreScission protease; also called IRAK3_(145-454); IRAK3-PK; source: Sf21 insect cells (baculovirus), purified (Ni-NTA, GSH sepharose, PreScission cleavage, gel filtration); not shown: His6, N-terminal, cleaved; GST, …
- stoichiometry N [1]: 2

B2: IRAK3 pseudokinase domain (residues 145-454) E214L (domain or fragment, human, UniProt Q9Y616 145-454, looked up)
chain: KGILLKSSISFQNIIEGTRNFHKDFLIGEGEIFEVYRVEIQNLTYAVKLFKQEKKMQCKKHWKRFLSELLVLLLFHHPNILELAAYFTETEKFCLIYPYMRNGTLFDRLQCVGDTAPLPWHIRIGILIGISKAIHYLHNVQPCSVICGSISSANILLDDQFQPKLTDFAMAHFRSHLEHQSCTINMTSSSSKHLWYMPEEYIRQGKLSIKTDVYSFGIVIMEVLTGCRVVLDDPKHIQLRDLLRELMEKRGLDSCLSFLDKKVPPCPRNFSAKLFCLAGRCAATRAKLRPSMDEVLNTLESTQASLYFAE
notes: IRAK3, human, pseudokinase domain, residues 145-454, with E214L; Construct 6His-TEV-GST-3C-IRAK3 145-454 E214L; PDB 6RUU holds the wild-type parent; also called IRAK3_(145-454) E214L; source: Sf21 insect cells (baculovirus), purified (Ni-NTA, GSH sepharose, PreScission cleavage, gel filtration); not shown: His6, N-terminal, cleaved; GST, N-terminal, cleaved
- stoichiometry N [2]: 2
